In article PMC8414802, “Hair Cell Generation in Cochlear Culture Models Mediated by Novel γ-Secretase Inhibitors” (Frontiers in Cell and Developmental Biology, 2021):

Tests used:
Assay type in all cases: cell-based
[1] = system: hair cells in sisomicin-treated rat OC explants; experiment: OC explants after sisomicin ototoxic damage; settings: sisomicin 200 μM 2 h
Protocol: (§1) To induce ototoxic damage, medium was removed from the OC cultures on the day after dissection and either 200 μM sisomicin (Sigma) in full otic medium, or 10^8 cfu/ml Streptococcus pneumoniae (described below) in ampicillin-free and FBS-free otic medium were added under the transwell membrane (lower compartment) of the cultivation system. After 2 h of exposure to the ototoxic insult, OCs were carefully washed 3 times and culture was continued for 4 days in fresh full otic medium.
Following culture, explants were washed (PBS) and fixed for 10 min at room temperature (RT) with 4% paraformaldehyde (PFA). […]
(§2) Dividing cells were labeled with, 5-ethyl-2′-deoxyuridine (EdU) and detected with Click-it Plus kit (Life Technologies). […]
(§3) Image processing was performed with the open-source image processing software FIJI, version 2.0 ([Schindelin et al., 2012]). Hair cells were quantified by counting Pou4f3 or Myo7a positive cells of the organ of Corti at three random microscopic fields for each cochlear region (base, middle, and apex) covering in total at least 1,200 μm. The number of hair cells (IHCs and OHCs) is expressed as unit per 100 μm.
FIGURE 3 GSI treatment after ototoxic damage. […] (B) Quantification of OHCs in sisomicin-treated explants (2 h; 200 μM), 4 days after ototoxic insult, and cultured in presence or absence of CPD3. […] (F) OHC quantification after bacteria-induced damage. […]

[2] = system: hair cells in rat OC explants exposed to S. pneumoniae; experiment: OC explants after S. pneumoniae-induced damage
Protocol: as §1
A clinical isolate of S. pneumoniae, serotype 3 was used as previously described ([Leib et al., 2000]; [Perny et al., 2017]). […] Bacteria were diluted to the desired optical density (OD570 nm) and the final inoculum concentration was determined by plating serial dilutions on Columbia sheep blood agar. […]
as §2
as §3, with “100 μm. […]” for “100 μm.”

[3] = system: Pou4f3 positive hair cells in cochlear sensory epithelium from P2 rats; experiment: Hair cell counts in rat organ of Corti explants; settings: rat OC explants, 4 days, apex/middle/base
Protocol: OC explants were isolated from postnatal day 2 (P2) Wistar rats, P0-P2 mice (Lgr5-GFP or Atoh1-nGFP mice). Dissection of the cochlea under a stereomicroscope (Nikon SMZ800, Japan) allowed OC separation from stria vascularis and modiolus, and the sensory epithelium was plated with hair cells facing up on Cell-Tak (Corning, United States)-coated transwell-clear inserts (6-well format, 0.4 μm pore, Corning, United States). Dissection medium was exchanged for 1.5 ml full otic medium supplemented with 10% FBS (Invitrogen) and 0.01% Ampicillin (Sigma), added under the insert membrane, maintaining the OC under a thin film of medium during culture at 37°C. 5-ethyl-2′-deoxyuridine (EdU, 5 μM, Life Technologies) was added directly in the medium when indicated. […]
as §2
as §3, with “100 μm. […]” for “100 μm.”

COc1ccc2c(c1)N1CCC(C)(C)C1=CC(=O)[C@H]2NC(=O)[C@H](C)NC(=O)CCC(F)(F)F [CPD3]
Increase of OHC numbers after sisomicin ([1]; 4 days culture, apex): not statistically significant
Pou4f3/Sox2 double-positive cells after sisomicin ([1]; 4 days, p = 0.057): observed only in the apical domain
OHCs after S. pneumoniae damage compared to DMSO ([2]; 4 days treatment after 2 h exposure): more OHCs in all turns of the organ of Corti
Pou4f3/Sox2 double-positive cells after S. pneumoniae damage ([2]; apical domain only, not statistically significant): increased occurrence
Region of OHC induction [3]: limited to the apical region
